What was measured:
hA2a [1] = target: T1, hA2a (Homo sapiens (Human), UniProt P29274); test: cAMP inhibition assay in hA2a/CHO cells; format: cell-based; details: adenosine stimulation, read-out: cAMP & FLIPR IC50 (nM) hA2a
Method in brief: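 CHO cells expressing human A2a, human A2b or mouse A2a, 5×10^3 cells/well, pre-incubated with compound 30 min at 37 °C, then stimulated with […] adenosine 30 min at 37 °C. cAMP read after 60 min room-temperature incubation with detection reagent.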

hA2b [2] = target: T2, hA2b (Homo sapiens (Human), UniProt P29275); test: cAMP inhibition assay in hA2b/CHO cells; format: cell-based; details: adenosine stimulation, read-out: cAMP & FLIPR IC50 (nM) hA2b
T2 sequence (P29275 whole entry): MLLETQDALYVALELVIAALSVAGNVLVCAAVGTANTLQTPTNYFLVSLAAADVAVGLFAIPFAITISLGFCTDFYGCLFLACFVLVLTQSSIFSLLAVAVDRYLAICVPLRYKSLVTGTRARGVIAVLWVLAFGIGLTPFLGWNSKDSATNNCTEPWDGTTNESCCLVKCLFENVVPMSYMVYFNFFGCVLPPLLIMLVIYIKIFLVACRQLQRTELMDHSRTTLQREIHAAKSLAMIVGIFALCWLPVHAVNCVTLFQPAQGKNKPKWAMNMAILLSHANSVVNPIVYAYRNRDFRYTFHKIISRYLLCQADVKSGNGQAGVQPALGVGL
Experimental: (§1) hA2a/CHO, hA2b/CHO and mA2a/CHO (Genscript) were plated at 5×10^3 cells/well into 384-well polystyrene plates at the day of experiment. Compounds were pre-incubated with cells for 30 min at 37° C., 5% CO2. Then […] adenosine was added to the cells and incubated for 30 min at 37° C., 5% CO2. Detection reagent (CISBIO) was added and the plates were incubated for 60 min at room temperature. The signal was captured by Envision.

mA2a = mA2a (Mus musculus (Mouse), UniProt Q60613); test: cAMP inhibition assay in mA2a/CHO cells; format: cell-based; details: adenosine stimulation, read-out: cAMP & FLIPR IC50 (nM) mA2a
Sequence of mA2a (Q60613 whole entry): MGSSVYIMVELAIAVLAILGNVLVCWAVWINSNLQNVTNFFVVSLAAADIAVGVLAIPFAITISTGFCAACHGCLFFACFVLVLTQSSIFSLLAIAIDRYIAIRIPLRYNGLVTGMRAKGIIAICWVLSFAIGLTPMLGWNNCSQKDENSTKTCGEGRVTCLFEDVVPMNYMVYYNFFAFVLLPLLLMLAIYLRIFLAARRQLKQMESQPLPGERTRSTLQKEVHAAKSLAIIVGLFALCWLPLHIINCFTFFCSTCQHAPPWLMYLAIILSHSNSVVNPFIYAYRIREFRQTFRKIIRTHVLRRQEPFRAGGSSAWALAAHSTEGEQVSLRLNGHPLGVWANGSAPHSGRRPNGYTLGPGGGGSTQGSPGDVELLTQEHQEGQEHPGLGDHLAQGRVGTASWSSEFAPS
Experimental: as §1

hA1 [3] = target: T3, hA1 (Homo sapiens (Human), UniProt P30542); test: FLIPR inhibition assay in hADORA1/CHO (hA1 expressing) cells; format: cell-based; details: hADORA1/CHO cells, FLIPR calcium, adenosine stimulation; read-out: cAMP & FLIPR IC50 (nM) hA1
T3 sequence (P30542 whole entry): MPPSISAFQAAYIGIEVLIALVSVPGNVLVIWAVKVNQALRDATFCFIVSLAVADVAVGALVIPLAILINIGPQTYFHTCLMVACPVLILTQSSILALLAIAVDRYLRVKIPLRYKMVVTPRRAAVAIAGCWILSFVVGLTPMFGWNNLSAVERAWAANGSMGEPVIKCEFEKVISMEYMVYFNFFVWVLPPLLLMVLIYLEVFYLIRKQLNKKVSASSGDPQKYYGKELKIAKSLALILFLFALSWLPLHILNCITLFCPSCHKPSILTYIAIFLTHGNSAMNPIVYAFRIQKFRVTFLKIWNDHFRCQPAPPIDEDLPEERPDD
Method in brief: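 CHO cells expressing human A1 were plated at 1×10^4 cells/well the day before, then loaded with FLIPR Calcium 5 dye for 60 min at 37 °C, 5% CO2. Compounds were added at several concentrations for 400 s before stimulation with […] adenosine. The calcium signal was recorded by FLIPR.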

hA3 [4] = target: T4, hA3 (Homo sapiens (Human), UniProt P0DMS8); test: cAMP & FLIPR inhibition, hA3 over-expressing cell line; format: cell-based
T4 sequence (P0DMS8 whole entry): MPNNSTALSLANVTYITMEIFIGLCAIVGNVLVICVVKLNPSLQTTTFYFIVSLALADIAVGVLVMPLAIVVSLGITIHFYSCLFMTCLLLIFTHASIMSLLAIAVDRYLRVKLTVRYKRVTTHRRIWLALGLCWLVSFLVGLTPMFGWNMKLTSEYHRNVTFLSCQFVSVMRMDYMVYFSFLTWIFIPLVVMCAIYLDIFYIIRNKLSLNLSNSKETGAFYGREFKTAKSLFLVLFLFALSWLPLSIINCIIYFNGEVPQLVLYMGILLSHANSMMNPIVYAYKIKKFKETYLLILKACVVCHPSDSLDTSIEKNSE
From the text: FLIPR™ and cAMP inhibition activities of exemplary compounds in different adenosine receptor over-expressing cell lines are shown in Table 4 below.

hA2a [5] = target: T1, hA2a; test: Radioligand binding to hA2a membrane ([3H]-CGS21680); details: [3H]-CGS21680, 90 min at 25° C., read-out: Binding Affinity (IC50 nM) hA2a
Experimental: (§2) Binding affinity and specificities of the compounds against different subtype of human adenosine receptors (hA1, hA2A, hA2B and hA3) were characterized with cell membrane chromatography binding analysis.
(§3) The compounds at different concentrations were incubate with hA2a membrane (from PerkinElmer) and [^3H]-CGS21680 for 90 min at 25° C., meanwhile 100 μL 0.5% PEI solution was added into […]-96 GF/B filter plate for 60 min at 4° C., then […]-96 GF/B filter plate was washed twice with 50 ml wash buffer, the membrane mix was transferred into […]-96 GF/B filter plate, and the filter plate was washed 4 times before incubated at 55° C. for 10 min. At last, […] ULTIMA GOLD was added into each well, and CPM was read by TopCount.
(§4) The empty boxes in the tables below indicate data not available.

hA1 [6] = target: T3, hA1; test: Radioligand binding to hA1 membrane ([3H]-DPCPX); details: 50 min at 25° C., read-out: Binding Affinity (IC50 nM) hA1
Experimental: as §2
as §3, with “hA1” for “hA2a”, “[^3H]-8-Cyclopentyl-1,3-dipropylxanthine (DPCPX)” for “[^3H]-CGS21680”, “50” for “90”
as §4

hA2b [7] = target: T2, hA2b; test: Radioligand binding to hA2b membrane ([3H]-DPCPX); details: 60 min at 27° C., read-out: Binding Affinity (IC50 nM) hA2b
Experimental: as §2
(§5) The compounds at different concentrations were incubate with hA2b membrane (from PerkinElmer) and [^3H]-DPCPX for 60 min at 27° C., and the binding reactions were stopped by rapid filtration through 0.5% BSA coated […]-96 GF/C plates using cell harvester. The filter plates were then washed three times with ice cold wash buffer, and dried at 37° C. for 120 min. At last, 50 µL of scintillation cocktail was added into each well, and CPM was read by TopCount.
as §4

hA3 [8] = target: T4, hA3; test: Radioligand binding to hA3 membrane (AB-MECA radioligand); details: 60 min at 27° C., read-out: Binding Affinity (IC50 nM) hA3
Experimental: as §2
as §5, with “hA3” for “hA2b”, “[…]” for “[^3H]-DPCPX”, “C.,” for “C., and”, “0.50%” for “0.5%”
as §4

T1 sequence (P29274 whole entry): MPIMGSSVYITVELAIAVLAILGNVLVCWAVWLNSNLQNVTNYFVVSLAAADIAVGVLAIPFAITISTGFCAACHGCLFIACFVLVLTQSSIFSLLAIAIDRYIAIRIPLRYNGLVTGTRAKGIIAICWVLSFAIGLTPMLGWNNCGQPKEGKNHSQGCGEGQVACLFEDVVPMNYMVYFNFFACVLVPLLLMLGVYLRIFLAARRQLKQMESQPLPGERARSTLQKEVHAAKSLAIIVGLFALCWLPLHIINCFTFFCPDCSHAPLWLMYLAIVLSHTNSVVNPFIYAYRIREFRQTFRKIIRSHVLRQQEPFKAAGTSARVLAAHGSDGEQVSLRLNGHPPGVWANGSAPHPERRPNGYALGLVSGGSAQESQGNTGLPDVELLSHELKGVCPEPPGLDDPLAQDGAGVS

SMILES	IC50 (hA2a [1]) [nM]	IC50 (hA2b [2]) [nM]	IC50 (mA2a) [nM]	IC50 (hA1 [3]) [nM]	IC50 (hA3 [4]) [nM]	IC50 (hA2a [5]) [nM]	IC50 (hA1 [6]) [nM]	IC50 (hA2b [7]) [nM]	IC50 (hA3 [8]) [nM]
Cc1cc(-c2c(-c3ccc(F)cc3)nc(N)n3nc(Cc4ncccc4F)nc23)cc(Cl)n1 [Example 18, 8-(2-chloro-6-methylpyridin-4-yl)-7-(4-fluorophenyl)-2-((3-fluoropyridin-2-yl)methyl)-[l,2,4]triazolo[1,5-c]pyrimidin-5-amine]	1.2	511	9.6	49	> 10000	–	–	–	–
CC(C)n1cc(-c2c(-c3ccc(F)cc3)nc(N)n3nc(Cc4ncccc4F)nc23)ccc1=O [Example 55, 5-(5-amino-7-(4-fluorophenyl)-2-((3-fluoropyridin-2-yl)methyl)-[1,2,4]triazolo[1,5-c]pyrimidin-8-yl)-1-isopropylpyridin-2(1H)-one]	0.7	101	0.8	13	–	4	0.1	2.8	7290
Cc1cc(-c2c(-c3ccc(F)cc3)nc(N)n3nc(C(C)c4c(F)cccc4F)nc23)ccn1 (centres unmarked) [Example 12, 2-[1-(2,6-difluorophenyl)ethyl]-7-(4-fluorophenyl)-8-(2-methylpyridin-4-yl)-[1,2,4]triazolo[1,5-c]pyrimidin-5-amine]	46	5000	316	214	> 10000	–	–	–	–
CN(C)c1cc(-c2c(-c3ccc(F)cc3)nc(N)n3nc(Cc4c(F)cccc4F)nc23)ccn1 [Example 10, 2-(2,6-difluorobenzyl)-8-(2-(dimethylamino)pyridin-4-yl)-7-(4-fluorophenyl)-[l,2,4]triazolo [l,5-c]pyrmidin-5-amine]	0.2	4.4	0.4	42	> 10000	0.9	2.3	0.1	4770
Cc1cc(-c2c(-c3ccc(F)cc3)nc(N)n3nc(Cc4ncccc4F)nc23)ccn1 [Example 2, 7-(4-fluorophenyl)-2-((3-fluoropyridin-2-yl)methyl)-8-(2-methylpyridin-4-yl)-[l,2,4]triazolo[l,5-c]pyrmidin-5-amine]	59	73	59	23	> 10000	–	–	–	–
Cn1cc(-c2c(-c3ncco3)nc(N)n3nc(Cc4ncccc4F)nc23)ccc1=O [Example 21, 5-(5-amino-2-((3-fluoropyridin-2-yl)methyl)-7-(oxazol-2-yl)-[1,2,4]triazolo[1,5-c]pyrimidin-8-yl)-1-methylpyridin-2(1H)-one]	36	270	41	113	> 10000	20	43	–	–
Cc1cc(-c2c(-c3ccc(F)cc3)nc(N)n3nc(Cc4cccc(C#N)n4)nc23)ccn1 [Example 19, 6-((5-amino-7-(4-fluorophenyl)-8-(2-methylpyridin-4-yl)-[1,2,4]triazolo[1,5-f]pyrimidin-2-yl)methyl)picolinonitrile]	102	303	88	23	> 10000	–	–	–	–
Nc1nc(-c2ccc(F)cc2)c(-c2ccnnc2)c2nc(Cc3c(F)cccc3F)nn12 [Example 6, 2-(2,6-difluorobenzyl)-7-(4-fluorophenyl)-8-(pyridazin-4-yl)-[1,2,4]triazolo[1,5-c]pyrimidin-5-amine]	63	17	182	21	> 10000	–	–	–	–
Cc1cc(-c2c(-c3ccc(F)cc3)nc(N)n3nc(Cc4nccs4)nc23)ccn1 [Example 11, 7-(4-fluorophenyl)-8-(2-methylpyridin-4-yl)-2-(thiazol-2-ylmethyl)-[1,2,4]triazolo[1,5-c]pyrimidin-5-amine]	34	219	78	9.7	> 10000	–	–	–	–
Cc1cc(-c2c(-c3ccc(F)cc3)nc(N)n3nc(Cc4cccc(Cl)c4)nc23)ccn1 [Example 8, 2-[(3-chlorophenyl)methyl]-7-(4-fluorophenyl)-8-(2-methylpyridin-4-yl)-[1,2,4]triazolo[1,5-c]pyrimidin-5-amine]	59	2950	98	162	> 10000	–	–	–	–
CCn1cc(-c2c(-c3ccc(F)cc3)nc(N)n3nc(Cc4ncccc4F)nc23)ccc1=O [Example 34, 5-(5-amino-7-(4-fluorophenyl)-2-((3-fluoropyridin-2-yl)methyl)-[1,2,4]triazolo[1,5-c]pyrimidin-8-yl)-1-ethylpyridin-2(1H)-one]	2.1	58	3.4	12	–	2.8	0.8	0.4	10000
Cc1cc(-c2c(-c3ccc(F)cc3)nc(N)n3nc(Cc4cscn4)nc23)ccn1 [Example 7, 7-(4-fluorophenyl)-8-(2-methylpyridin-4-yl)-2-[(1,3-thiazol-4-yl)methyl]-[1,2,4]triazolo[1,5-c]pyrimidin-5-amine]	102	1600	209	23	> 10000	–	–	–	–
Cc1cc(-c2c(-c3ccc(F)cc3)nc(N)n3nc(Cc4c(F)cccc4F)nc23)c(C)cn1 [Example 13, 2-[(2,6-difluorophenyl)methyl]-8-(2,5-dimethylpyridin-4-yl)-7-(4-fluorophenyl)-[1,2,4]triazolo[1,5-c]pyrimidin-5-amine]	11	81	56	153	> 10000	–	–	–	–
Nc1nc(-c2ccc(F)cc2)c(-c2ccnc(Cl)c2)c2nc(Cc3ncccc3F)nn12 [Example 3, 8-(2-chloropyridin-4-yl)-7-(4-fluorophenyl)-2-((3-fluoropyridin-2-yl)methyl)-[1,2,4]triazolo[1,5-c]pyrmidin-5-amine]	56	65	70	42	> 10000	–	–	–	–
Cn1cc(-c2c(-c3ccc(F)cc3)nc(N)n3nc(Cc4c(F)cccc4F)nc23)ccc1=O [Example 9, 5-(5-amino-2-(2,6-difluorobenzyl)-7-(4-fluorophenyl)-[1,2,4]triazolo[1,5-c]pyrimidin-8-yl)-l-methylpyridin-2(1H)-one]	0.6	56	0.8	20	> 10000	2.1	0.2	–	–
